Measurements as given in patent publication US10434112B2, “Use of agonists of formyl peptide receptor 2 for treating dermatological diseases” (Allergan, Inc., priority 2013, dated 2019).
Values belong to the molecule of their own block, whether it stands above or below them.

Experiments:
FPRL-1 = FPRL-1 (Homo sapiens (Human), UniProt P25090); experiment: FPRL-1 Ga16-CHO EC50 (efficacy); format: cell-based; settings: value in brackets; for FPRL-1 Gal16-CHO (efficacy): Table 3
human FPR2 receptor = human FPR2 receptor (Homo sapiens (Human), UniProt P25090); experiment: FLIPR Ca+2 response in HEK-Gα16 cells stably expressing the human FPR2 receptor; format: cell-based; parameters: FPR2 (% eff): unit not given here; settings: Table 4; value in brackets, given mostly as fraction
Outline: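 HEK-Gα16 cells stably expressing human FPR2, loaded with 2 μM Fluo-4 in HBSS/20 mM HEPES for 40 min at 37° C., then washed. Ligands added in HBSS/Hepes and Ca+2 responses recorded on FLIPR in relative fluorescence units.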

[1] = system: LL-37-induced inflammation in mouse ears; experiment: LL37-induced model of rosacea in mice (ear thickness); format: in vivo; settings: topical application to ears; FIG. 2; p<0.05 vs. vehicle at all time points
Procedure: Prior to dosing, animals are lightly anaesthetized with isofluorane and baseline right and left ear thickness measurements are made with a digital caliper (Mitutoyo 293-340). At t=−1 hrs, animals are lightly anaesthetized with isoflurane to allow topical application (dorsal side) of 10 μL of FPR2 agonist formulated in a vehicle consisting of PBS:ethanol (50:50), or vehicle control to both ears. At t=0 hr, mice are re-anaesthetized. Following ear thickness measurements, 20 uL of LL-37 (100 μM) is injected into the right ear, while PBS is injected into the left ear. Additional ear thickness measurements are taken at t=3 and 6 hours. After the last time point, mice are euthanized by CO2 inhalation and ears collected for additional analyses.

Sequence of FPRL-1 (P25090 whole entry): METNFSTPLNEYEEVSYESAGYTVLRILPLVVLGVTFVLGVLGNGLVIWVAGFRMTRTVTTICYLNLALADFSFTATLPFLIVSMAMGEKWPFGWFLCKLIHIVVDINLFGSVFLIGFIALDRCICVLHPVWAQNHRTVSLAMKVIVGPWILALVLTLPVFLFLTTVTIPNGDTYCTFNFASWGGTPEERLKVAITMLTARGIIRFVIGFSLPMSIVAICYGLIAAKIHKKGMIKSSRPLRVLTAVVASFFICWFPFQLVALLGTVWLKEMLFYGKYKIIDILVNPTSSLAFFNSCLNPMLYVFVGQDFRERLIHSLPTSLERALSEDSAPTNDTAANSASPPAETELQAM
Sequence of human FPR2 receptor (P25090 whole entry): as above

SMILES: O=C(Nc1ccc(Cl)cc1)NN1C(=O)NC2(CCCCC2)C1=O [1-(4-chlorophenyl)-3-(2,4-dioxo-1,3-diazaspiro[4,5]decan-3-yl) urea]
- FPRL-1 Ga16-CHO (efficacy) (FPRL-1; Table 2): 0.98

SMILES: CCC1(C)NC(=O)N(NC(=O)Nc2ccc(Cl)cc2)C1=O (stereo not shown) [1-(4-chlorophenyl)-3-(4-ethyl-4-methyl-2,5-dioxoimidazolidin-1-yl)urea]
- FPRL-1 Ga16-CHO (efficacy) (FPRL-1; Table 2): 0.96

SMILES: Cc1ccc(NC(=O)NN2C(=O)NC3(CCC(C)CC3)C2=O)cc1 (stereo not shown) [1-(8-methyl-2,4-dioxo-1,3-diazaspiro[4,5]decan-3-yl)-3-(p-tolyl)urea]
- FPRL-1 Ga16-CHO (efficacy) (FPRL-1; Table 2): 0.91

SMILES: CC1(CCc2ccccc2)NC(=O)N(NC(=O)Nc2ccccc2)C1=O (stereo not shown) [1-[4-methyl-2,5-dioxo-4-(2-phenylethyl)imidazolidin-1-yl]-3-phenylurea]
- FPRL-1 Ga16-CHO (efficacy) (FPRL-1; Table 2): 1.0

SMILES: COc1ccc(NC(=O)NC(Cc2ccccc2)C(=O)O)cc1OC (stereo not shown) [2-({[(3,4-dimethoxyphenyl)amino]carbonyl}amino)-3-phenylpropanoic acid]
- FPRL-1 Ga16-CHO (efficacy) (FPRL-1; Table 1): 0.72

SMILES: O=C(Nc1ccc(Br)cc1)NC(Cc1c[nH]c2ccccc12)C(=O)O (stereo not shown) [2-({[(4-bromophenyl)amino]carbonyl}amino)-3-(1H-indol-3-yl)propanoic acid]
- FPRL-1 Ga16-CHO (efficacy) (FPRL-1; Table 1): 0.89

SMILES: O=C(Nc1ccc(Cl)cc1)NC(Cc1ccccc1)C(=O)O (stereo not shown) [2-({[(4-chlorophenyl)amino]carbonyl}amino)-3-phenylpropanoic acid]
- FPRL-1 Ga16-CHO (efficacy) (FPRL-1; Table 1): 1.0

SMILES: O=C(Nc1ccc(OC(F)(F)F)cc1)NC(Cc1ccccc1)C(=O)O (stereo not shown) [3-phenyl-2-[({[4-(trifluoromethoxy)phenyl]amino}carbonyl)amino]propanoic acid]
- FPRL-1 Ga16-CHO (efficacy) (FPRL-1; Table 1): 0.79

SMILES: O=C(Nc1ccc(Br)cc1)N[C@H](Cc1ccccc1)C(=O)O [(2R)-2-({[(4- bromophenyl)amino]carbonyl}amino)- 3-phenylpro] [(2R)-2-({[(4-bromophenyl)amino]carbonyl}amino)-3-phenylpropanoic acid]
- FPRL-1 Ga16-CHO (efficacy) (FPRL-1; Table 1): 0.99

SMILES: O=C(Nc1ccc(Cl)c(Cl)c1)N[C@@H](Cc1ccccc1)C(=O)O [(2S)-2-({[(3,4-dichlorophenyl)amino]carbonyl}amino)-3-phenylpropanoic acid]
- FPRL-1 Ga16-CHO (efficacy) (FPRL-1; Table 1): 0.57

SMILES: CC(C)C[C@H](NC(=O)Nc1ccc(Br)cc1F)C(=O)NCC(=O)O [Compound 7, {[(2S)-2-{[(4-bromo-2-fluorophenyl)carbamoyl]amino}-4-methylpentanoyl]amino} acetic acid]
- Anti-inflammatory activity in the LL-37-induced rosacea mouse model [1]: Anti-inflammatory activity

SMILES: CC(C)C[C@H](NC(=O)Nc1ccc(Br)cc1)C(=O)NCC(=O)O [Compound 8, {[(2S)-2-{[(4-bromophenyl)carbamoyl]amino}-4-methylpentanoyl]amino} acetic acid]
- Anti-inflammatory activity in the LL-37-induced rosacea mouse model [1]: Anti-inflammatory activity

Continued, in another order:

- FPRL-1 Ga16-CHO (efficacy) (FPRL-1; Table 1): 0.91
SMILES: CC(C)[C@H](NC(=O)Nc1ccc(Br)cc1F)C(=O)O [(2S)-2-({[(4-bromo-2-fluorophenyl)amino]carbonyl}amino)-3-methylbutanoic acid]

- FPRL-1 Ga16-CHO (efficacy) (FPRL-1; Table 1): 0.91
SMILES: CC(C)[C@H](NC(=O)Nc1ccc(Br)cc1)C(=O)O [(2S)-2-({[(4-bromophenyl)amino]carbonyl}amino)-3-methylbutanoic acid]

- FPRL-1 Ga16-CHO (efficacy) (FPRL-1; Table 1): 0.90
SMILES: COc1ccc(NC(=O)N[C@@H](Cc2ccccc2)C(=O)O)cc1 [(2S)-2-({[(4-methoxyphenyl)amino]carbonyl}amino)-3-phenylpropanoic acid]

- FPRL-1 Ga16-CHO (efficacy) (FPRL-1; Table 1): 0.97
SMILES: O=C(Nc1ccc(C(F)(F)F)cc1)N[C@@H](Cc1ccccc1)C(=O)O [(2S)-3-phenyl-2-[({[4-(trifluoromethyl)phenyl]amino}carbonyl)amino]propanoic acid]

- FPRL-1 Ga16-CHO (efficacy) (FPRL-1; Table 1): 0.94
SMILES: O=C(Nc1ccc(Br)cc1)N[C@H](C(=O)O)c1ccccc1 [(2S)-({[(4-bromophenyl)amino]carbonyl}amino) (phenyl)acetic acid]

- FPRL-1 Ga16-CHO (efficacy) (FPRL-1; Table 1): 0.89
SMILES: CC[C@H](C)[C@H](NC(=O)Nc1ccc(Br)cc1)C(=O)O [(2S,3S)-2-({[(4-bromophenyl)amino]carbonyl}amino)-3-methylpentanoic acid]

- FPR2 (% eff) (human FPR2 receptor): 1.0
SMILES: CC[C@H](C)[C@H](NC(=O)Nc1ccc(Br)cc1)C(=O)NCC(=O)O [Compound 3, {[(2S,3S)-2-{[(4-bromophenyl)carbamoyl]amino}-3-methylpentanoyl]amino} acetic acid]
- Anti-inflammatory activity in the LL-37-induced rosacea mouse model [1]: Anti-inflammatory activity

- FPRL-1 Gal16-CHO (efficacy) (FPRL-1): 0.98
SMILES: O=C(CN1C(=O)C2CC=CCC2C1=O)Nc1ccc(Br)cc1 (stereo not shown) [N-(4-bromophenyl)-1,3,3a,4,7,7a-hexahydro-1,3-dioxo-2H-isoindole-2-acetamide]

- FPRL-1 Gal16-CHO (efficacy) (FPRL-1): 0.90
SMILES: O=C(CN1C(=O)C2C3C=CC(C3)C2C1=O)Nc1ccc(Br)cc1 (stereo not shown) [N-(4-bromophenyl)-1,3,3a,4,7,7a-hexahydro-1,3-dioxo-4,7-methano-2H-isoindole-2-acetamide]

- FPRL-1 Gal16-CHO (efficacy) (FPRL-1): 0.89
SMILES: O=C(CN1C(=O)NC2(CCCCC2)C1=O)Nc1ccc(Br)cc1 [N-(4-bromophenyl)-2-(2,4-dioxo-1,3-diazaspiro[4.5]dec-3-yl)acetamide]

- FPRL-1 Gal16-CHO (efficacy) (FPRL-1): 0.98
SMILES: CCC1(CC)NC(=O)N(CC(=O)Nc2ccc(Br)cc2)C1=O [N-(4-bromophenyl)-2-(4,4-diethyl-2,5-dioxoimidazolidin-1-yl)acetamide]

- FPRL-1 Gal16-CHO (efficacy) (FPRL-1): 0.94
SMILES: CC1(C)NC(=O)N(CC(=O)Nc2ccc(Br)cc2)C1=O [N-(4-bromophenyl)-2-(4,4-dimethyl-2,5-dioxoimidazolidin-1-yl)acetamide]
